{
  "source": "patent US20050143328A1",
  "about": "“COMPOSITION AND TREATMENT FOR ENVELOPE VIRUS INFECTIONS” (priority 2003, published 2005)",
  "tested_on": "herpes simplex I",
  "test": "Topical treatment of herpes simplex I / cold sores with a neomycin B composition",
  "assay_type": "in vivo",
  "conditions": "between 3.5 and 5 mg/g neomycin B combined with pramoxine hydrochloride in petroleum jelly",
  "text": "Example 2: This embodiment of the invention is a compound similar to that disclosed in Example 1, except that it is specifically targeted to the treatment of herpes simplex I and the prevention of physiological manifestations of herpes simplex I (e.g., cold sores). […] However, for longer-term use or storage, preservatives like methylparaben are utilized to avoid contamination, and the ingredients preferably comprise an emulsion or suspension to distribute evenly the physiologically active ingredients.",
  "data": [
    {"compound": "NC[C@@H]1O[C@H](O[C@H]2[C@@H](O)[C@H](O[C@@H]3[C@@H](O)[C@H](N)C[C@H](N)[C@H]3O[C@H]3O[C@H](CN)[C@@H](O)[C@H](O)[C@H]3N)O[C@@H]2CO)[C@H](N)[C@@H](O)[C@@H]1O", "note": "[neomycin B]", "values": [
      {"measurement": "outcome of the experiment (treatment of herpes simplex I and prevention of its manifestations, e.g. cold sores)", "value": "ultimately effective"}
    ]}
  ]
}
